Molecular target: interaction between p53 and MDM2 proteins (recombinant GST-tagged MDM2) (Homo sapiens, UniProt Q00987)
Assay: ELISA of inhibition of p53-MDM2 interaction (GST-tagged MDM2 binding to immobilized p53-like peptide)
Settings: absorption at 450 nm, triplicate

Chain of interaction between p53 and MDM2 proteins (recombinant GST-tagged MDM2) (Q00987 whole entry): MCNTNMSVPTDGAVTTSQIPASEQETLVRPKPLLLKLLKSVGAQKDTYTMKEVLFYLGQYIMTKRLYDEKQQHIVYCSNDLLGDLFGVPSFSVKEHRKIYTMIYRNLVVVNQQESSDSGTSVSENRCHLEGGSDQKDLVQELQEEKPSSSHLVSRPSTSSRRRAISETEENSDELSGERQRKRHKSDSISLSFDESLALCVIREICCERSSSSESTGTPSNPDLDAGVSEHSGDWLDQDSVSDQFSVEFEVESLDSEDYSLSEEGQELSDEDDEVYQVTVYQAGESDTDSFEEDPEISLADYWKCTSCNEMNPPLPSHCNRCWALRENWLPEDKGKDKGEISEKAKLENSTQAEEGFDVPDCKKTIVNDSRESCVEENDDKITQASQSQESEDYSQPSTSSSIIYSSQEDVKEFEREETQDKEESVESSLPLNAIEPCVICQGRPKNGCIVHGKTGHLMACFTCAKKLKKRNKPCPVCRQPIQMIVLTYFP

IC50 [µM] | Structure (SMILES)
5.5 | CCOc1cc(OC)ccc1C1=N[C@H](CC2CCCC2)[C@H](c2ccc(Cl)cc2)N1C(=O)N1CCC(N2CCCC2)CC1 (relative stereo) [Example 28, [5-(4-Chloro-phenyl)-4-cyclopentylmethyl-2-(2-ethoxy-4-methoxy-phenyl)-4,5-dihydro-imidazol-1-yl]-(4-pyrrolidin-1-yl-piperidin-1-yl)-methanone]
0.7 | CCCCC[C@H]1N=C(c2ccc(OC)cc2OCC)N(C(=O)N2CCC(N3CCCC3)CC2)[C@H]1c1ccc(Cl)cc1 (relative stereo) [Example 55, [5-(4-Chloro-phenyl)-2-(2-ethoxy-4-methoxy-phenyl)-4-pentyl-4,5-dihydro-imidazol-1-yl]-(4-pyrrolidin-1-yl-piperidin-1-yl)-methanone]
13.2 | CCOc1cc(OC)ccc1C1=N[C@H](CC2CCCC2)[C@H](c2ccc(Cl)cc2)N1C(=O)N1CCN(C)CC1 (stereo in doubt) [Example 24, [5-(4-Chloro-phenyl)-4-cyclopentylmethyl-2-(2-ethoxy-4-methoxy-phenyl)-4,5-dihydro-imidazol-1-yl]-(4-methyl-piperazin-1-yl)-methanone]
45 | CCC[C@H]1N=C(c2ccc(OC)cc2OCC)N(C(=O)N2CCC(N3CCCC3)CC2)[C@H]1c1ccc(Cl)cc1 (stereo in doubt) [Example 26, [5-(4-Chloro-phenyl)-2-(2-ethoxy-4-methoxy-phenyl)-4-propyl-4,5-dihydro-imidazol-1-yl]-(4-pyrrolidin-1-yl-piperidin-1-yl)-methanone]
